# Tested on: HBV
# Test: HBV inhibition assay: anti-HBV activity in vitro in HepG2.2.15 cells (extracellular HBV DNA by qPCR)
# Type: cell-based
# Settings: Hepatitis B virus, 120 h, five days after compound treatment, extracellular HBV DNA in culture supernatant by qPCR, concentration at which HBV replication is inhibited by 50%
# Outline: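 HepG2.2.15 cells (stably carrying HBV genome) treated with half-log serially diluted compounds at 0.5% DMSO final for five days. Extracellular HBV DNA in supernatant quantified by qPCR after Proteinase K digestion; EC50 is concentration giving 50% inhibition of replication.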
row,Structure (SMILES),EC50 [nM]
1,"C[C@H]1Cn2ncc(N3CC(c4ccccc4)OC3=O)c2CN1C(=O)Nc1cc(F)c(F)c(F)c1 (stereo partly drawn) [Example 344, (6S)-6-methyl-3-(2-oxo-5-phenyl-oxazolidin-3-yl)-N-(3,4,5-trifluorophenyl)-6,7-dihydro-4H-pyrazolo[1,5-a]pyrazine-5-carboxamide]",7
2,"C[C@H]1Cn2ncc(N3CC(c4ccccn4)OC3=O)c2CN1C(=O)Nc1cc(F)c(F)c(F)c1 (stereo partly drawn) [Example 345, (6S)-6-methyl-3-[2-oxo-5-(2-pyridyl)oxazolidin-3-yl]-N-(3,4,5-trifluorophenyl)-6,7-dihydro-4H-pyrazolo[1,5-a]pyrazine-5-carboxamide]",17
3,"C[C@H]1Cn2ncc(N3CC(c4ccncc4)OC3=O)c2CN1C(=O)Nc1cc(F)c(F)c(F)c1 (stereo partly drawn) [Example 346, (6S)-6-methyl-3-[2-oxo-5-(4-pyridyl)oxazolidin-3-yl]-N-(3,4,5-trifluorophenyl)-6,7-dihydro-4H-pyrazolo[1,5-a]pyrazine-5-carboxamide]",12
4,"C[C@H]1Cn2ncc(N3CC(c4cocn4)OC3=O)c2CN1C(=O)Nc1cc(F)c(F)c(F)c1 (stereo partly drawn) [Example 348, (6S)-6-methyl-3-(5-oxazol-4-yl-2-oxo-oxazolidin-3-yl)-N-(3,4,5-trifluorophenyl)-6,7-dihydro-4H-pyrazolo[1,5-a]pyrazine-5-carboxamide]",94
5,"Cc1ncc(C2CC(=O)N(c3cnn4c3CN(C(=O)Nc3cc(F)c(F)c(F)c3)[C@@H](C)C4)C2)o1 (stereo partly drawn) [Example 349, (6S)-6-methyl-3-[4-(2-methyloxazol-5-yl)-2-oxo-pyrrolidin-1-yl]-N-(3,4,5-trifluorophenyl)-6,7-dihydro-4H-pyrazolo[1,5-a]pyrazine-5-carboxamide]",15
6,"Cc1nc(C2CC(=O)N(c3cnn4c3CN(C(=O)Nc3cc(F)c(F)c(F)c3)[C@@H](C)C4)C2)co1 (stereo partly drawn) [Example 350, (6S)-6-methyl-3-[4-(2-methyloxazol-4-yl)-2-oxo-pyrrolidin-1-yl]-N-(3,4,5-trifluorophenyl)-6,7-dihydro-4H-pyrazolo[1,5-a]pyrazine-5-carboxamide]",15
7,"C[C@H]1Cn2ncc(N3CC(c4cccnc4)CC3=O)c2CN1C(=O)Nc1cc(F)c(F)c(F)c1 (stereo partly drawn) [Example 351, (6S)-6-methyl-3-[2-oxo-4-(3-pyridyl)pyrrolidin-1-yl]-N-(3,4,5-trifluorophenyl)-6,7-dihydro-4H-pyrazolo[1,5-a]pyrazine-5-carboxamide]",12
8,"C[C@H]1Cn2ncc(N3CC(c4cocn4)CC3=O)c2CN1C(=O)Nc1cc(F)c(F)c(F)c1 (stereo partly drawn) [Example 352, (6S)-6-methyl-3-(4-oxazol-4-yl-2-oxo-pyrrolidin-1-yl)-N-(3,4,5-trifluorophenyl)-6,7-dihydro-4H-pyrazolo[1,5-a]pyrazine-5-carboxamide]",14
9,"C[C@H]1Cn2ncc(N3CC(c4ccccn4)CC3=O)c2CN1C(=O)Nc1cc(F)c(F)c(F)c1 (stereo partly drawn) [Example 353, (6S)-6-methyl-3-[2-oxo-4-(2-pyridyl)pyrrolidin-1-yl]-N-(3,4,5-trifluorophenyl)-6,7-dihydro-4H-pyrazolo[1,5-a]pyrazine-5-carboxamide]",5
10,"C[C@H]1Cn2ncc(N3CC(c4ccncc4)CC3=O)c2CN1C(=O)Nc1cc(F)c(F)c(F)c1 (stereo partly drawn) [Example 354, (6S)-6-methyl-3-[2-oxo-4-(4-pyridyl)pyrrolidin-1-yl]-N-(3,4,5-trifluorophenyl)-6,7-dihydro-4H-pyrazolo[1,5-a]pyrazine-5-carboxamide]",13
11,"C[C@H]1Cn2ncc(N3CCCC3=O)c2CN1C(=O)Nc1ccc(F)c(Cl)c1 [Example 355, (6S)—N-(3-chloro-4-fluoro-phenyl)-6-methyl-3-(2-oxopyrrolidin-1-yl)-6,7-dihydro-4H-pyrazolo[1,5-a]pyrazine-5-carboxamide]",36
12,"C[C@H]1Cn2ncc(N3CCCC3=O)c2CN1C(=O)Nc1cc(F)c(F)c(F)c1 [Example 356, (6S)-6-methyl-3-(2-oxopyrrolidin-1-yl)-N-(3,4,5-trifluorophenyl)-6,7-dihydro-4H-pyrazolo[1,5-a]pyrazine-5-carboxamide]",50
13,"CC1CCC(=O)N(c2cnn3c2CN(C(=O)Nc2cc(F)c(F)c(F)c2)[C@@H](C)C3)C1 (stereo partly drawn) [Example 358, (6S)-6-methyl-3-(5-methyl-2-oxo-1-piperidyl)-N-(3,4,5-trifluorophenyl)-6,7-dihydro-4H-pyrazolo[1,5-a]pyrazine-5-carboxamide]",43
14,"C[C@H]1Cn2ncc(N3CC(C#N)(CO)CC3=O)c2CN1C(=O)Nc1cc(F)c(F)c(F)c1 (stereo partly drawn) [Example 360, (6S)-3-[4-cyano-4-(hydroxymethyl)-2-oxo-pyrrolidin-1-yl]-6-methyl-N-(3,4,5-trifluorophenyl)-6,7-dihydro-4H-pyrazolo[1,5-a]pyrazine-5-carboxamide]",43
15,"C[C@H]1Cn2ncc(N3CC(C)(C#N)CC3=O)c2CN1C(=O)Nc1cc(F)c(F)c(C(F)F)c1 (stereo partly drawn) [Example 361, (6S)-3-(4-cyano-4-methyl-2-oxo-pyrrolidin-1-yl)-N-[3-(difluoromethyl)-4,5-difluoro-phenyl]-6-methyl-6,7-dihydro-4H-pyrazolo[1,5-a]pyrazine-5-carboxamide]",11
16,"C[C@H]1Cn2ncc(N3CC(C)(CO)CC3=O)c2CN1C(=O)Nc1cc(F)c(F)c(F)c1 (stereo partly drawn) [Example 362, (6S)-3-[4-(hydroxymethyl)-4-methyl-2-oxo-pyrrolidin-1-yl]-6-methyl-N-(3,4,5-trifluorophenyl)-6,7-dihydro-4H-pyrazolo[1,5-a]pyrazine-5-carboxamide]",32
17,"C[C@H]1Cn2ncc(N3CC(N(C)c4ncccn4)CC3=O)c2CN1C(=O)Nc1cc(F)c(F)c(F)c1 (stereo partly drawn) [Example 363, (6S)-6-methyl-3-[4-[methyl(pyrimidin-2-yl)amino]-2-oxo-pyrrolidin-1-yl]-N-(3,4,5-trifluorophenyl)-6,7-dihydro-4H-pyrazolo[1,5-a]pyrazine-5-carboxamide]",9
18,"C[C@H]1Cn2ncc(N3CCOCC3=O)c2CN1C(=O)Nc1ccc(F)c(Cl)c1 [Example 364, (6S)—N-(3-chloro-4-fluoro-phenyl)-6-methyl-3-(3-oxomorpholin-4-yl)-6,7-dihydro-4H-pyrazolo[1,5-a]pyrazine-5-carboxamide]",28
19,"C[C@H]1Cn2ncc(N3CCNC3=O)c2CN1C(=O)Nc1cc(F)c(F)c(F)c1 [Example 368, (6S)-6-methyl-3-(2-oxoimidazolidin-1-yl)-N-(3,4,5-trifluorophenyl)-6,7-dihydro-4H-pyrazolo[1,5-a]pyrazine-5-carboxamide]",47
20,"C[C@H]1Cn2ncc(N3CC(C)(C)OCC3=O)c2CN1C(=O)Nc1ccc(F)c(Cl)c1 [Example 371, (6S)—N-(3-chloro-4-fluoro-phenyl)-3-(2,2-dimethyl-5-oxo-morpholin-4-yl)-6-methyl-6,7-dihydro-4H-pyrazolo[1,5-a]pyrazine-5-carboxamide]",20
21,"C[C@H]1Cn2ncc(N3C(=O)COC[C@@H]3C)c2CN1C(=O)Nc1cc(F)c(F)c(F)c1 [Example 372, (6S)-6-methyl-3-[(3S)-3-methyl-5-oxo-morpholin-4-yl]-N-(3,4,5-trifluorophenyl)-6,7-dihydro-4H-pyrazolo[1,5-a]pyrazine-5-carboxamide]",50
